Series [1] has as its system LS180. In words: 3-day growth inhibition assay. In kind it is cell-based. As to conditions: Homo sapiens; LS180 (Colon), KRAS p.G12D, PIK3CA p.H1047R, PTEN p.I67K; read-out: Growth inhibition (IC50: nmol/L). Here is the method: (§1) The IC50 values for each compound in cell lines used in a series of animal experiments evaluating the antitumor effects of Compound (1) on KRAS mutant tumor xenografts were determined by a 3-day growth inhibition assay (Table 7).

For series [2], the system named is LU65. In words: 3-day growth inhibition assay. In kind it is cell-based. As to conditions: Homo sapiens, Lu-65; LU65 (NSCLC), KRAS p.G12C; read-out: Growth inhibition (IC50: nmol/L). On the procedure:
as §1

For series [3], the system named is SW1573. In words: 3-day growth inhibition assay. In kind it is cell-based. As to conditions: Homo sapiens; SW1573 (NSCLC), KRAS p.G12C, PIK3CA p.K111E; read-out: Growth inhibition (IC50: nmol/L). Here is the method:
as §1

The test system of series [4] is SW1573 human lung tumor xenografts. As to conditions: 30 mg/kg/day.
The test system of series [5] is LU65 human lung tumor xenografts. The series can be described thus: antitumor effect in mice with LU65 xenograft tumors. As to conditions: 30 mg/kg/day.
Description: The tumor volumes and body weights of animals were recorded.
The subject of series [6] is BT483. In words: growth inhibition assay, NF1 mutant cell line. In kind it is cell-based. As to conditions: Homo sapiens, BT-483; BT483, ER+ breast, NF1 p.R1204W. The text has this:
(§2) In order to investigate the growth inhibitory effect of Compound (1) in NF1 mutant cancer cell lines, the IC50 values of growth inhibition assay were obtained and compared then in Table 2.
(§3) In this experiment, to compare the growth inhibitory effect of Compound (1) with those of MAPK and PI3K signaling inhibitors, the IC50 values of trametinib (as a MEK inhibitor), and Alpelisib (as a PI3K inhibitor) were obtained and compared.

Series [7] relates to H1838. The series can be described thus: growth inhibition assay, NF1 mutant cell line. In kind it is cell-based. As to conditions: Homo sapiens, NCI-H1838; H1838, lung, NF1 p.N184Qfs*17.
Source text: as §2, §3

Series [8] has as its system HCC202. The series can be described thus: growth inhibition assay, NF1 mutant cell line. In kind it is cell-based. As to conditions: HCC202, HER2+ breast, NF1 p.X465_splice.
Source text: as §2, §3

The subject of series [9] is HCT116. In words: growth inhibition assay, NF1 mutant cell line. In kind it is cell-based. As to conditions: Homo sapiens, HCT-116; HCT116, colon, NF1 p.P678Rfs*10, p.P388T.
Source text: as §2, §3

Series [10] deals with MDA-MB-175VII. In words: growth inhibition assay, NF1 mutant cell line. In kind it is cell-based. As to conditions: Homo sapiens, ER+ breast, NF1 p.1679Dfs*21.
Source text: as §2, §3

Series [11] deals with MDA-MB-231. In words: growth inhibition assay, NF1 mutant cell line. In kind it is cell-based. As to conditions: Homo sapiens; MDA-MB-231, TN breast, NF1 p.T467Hfs*3.
Source text: as §2, §3

In series [12] the test system is MeWo. In words: growth inhibition assay, NF1 mutant cell line. In kind it is cell-based. As to conditions: Homo sapiens, melanoma, NF1 p.Q1336*.
Source text: as §2, §3

For series [13], the system named is RKO. In words: growth inhibition assay, NF1 mutant cell line. In kind it is cell-based. As to conditions: Homo sapiens, colon.
Source text: as §2, §3

Series [14] relates to NF1 mutant cell lines. In words: growth inhibition assay, summary over the panel. As to conditions: range over the cell lines of Table 2; read-out: IC50 values, range over NF1 mutant cell lines. In kind it is cell-based.
Source text: as §2, §3

The subject of series [15] is MCF7 cells (control and NF1 knockdown). In words: immunoblotting of target inhibition and apoptosis induction. In kind it is cell-based, human. On the procedure:
To investigate the mechanism of action of Compound (1) in inhibiting the growth of NF1 knockdown breast cancer cells, Compound (1), trametinib, Alpelisib, and fulvestrant were exposed to NF1-knockdown MCF7 and T47D cells at indicated final concentration for 24 hours. NF1, pPRAS40 Thr246, pYB1 Ser102, pS6RP Ser235/236, ERα, and cleaved PARP were detected by immunoblotting.

The subject of series [16] is AsPC-1. The series can be described thus: 3-day growth inhibition assay. As to conditions: Homo sapiens, ASPC1; AsPC-1 (Pancreas), KRAS p.G12D; read-out: Growth inhibition (IC50: nmol/L). In kind it is cell-based. Here is the method:
as §1

For series [17], the system named is LS180 human colorectal tumor xenografts. The series can be described thus: antitumor effect in mice with LS180 xenograft tumors. As to conditions: 1 mg/kg/day. In kind it is in vivo. On the procedure:
The oncogenic KRAS mutations are diverse, including not only G12C but also G12X and G13X in the mutation hotspot Glycine at […]. To determine whether Compound (1), which targets downstream of MAPK and PI3K signaling, is effective against G12D mutated cancers, an efficacy experiment of Compound (1) was conducted using subcutaneously transplanted LS180 tumor derived from colorectal cancers with KRAS G12D and PIK3CA and PTEN gene alterations.
Evaluation was conducted by comparing the efficacy of 80 mg/kg/day of Compound (1) with that of 1 mg/kg/day MEK inhibitor trametinib used as a reference group.

The subject of series [18] is AsPC-1 human pancreatic tumor xenografts. As to conditions: 1 mg/kg/day.
Description: All treatments were administered every day by oral gavage. The tumor volumes and body weights of animals were recorded.
Series [19] concerns ER+/HER2− breast cancer cell lines. In words: immunoblotting, combination with fulvestrant, presence and absence of estrogen and NF1. In kind it is cell-based. On the procedure: The actual standard of care for ER+/HER2− breast cancer uses the adjuvant therapies such as tamoxifen, letrozole, or fulvestrant. Patients with recurrent or refractory tumors are treated with additional use of CDK4/6 inhibitors or Alpelisib for PIK3CA-mutated cancers.
A general note: In western blotting, separated proteins are transferred to a membrane and probed.

Bounds are passed on as bounds.

Regarding `C=CC(=O)N1CCN(c2nc(=O)n(-c3c(C)ccnc3C(C)C)c3nc(-c4c(O)cccc4F)c(F)cc23)[C@@H](C)C1` [AMG510, sotorasib, reference compound], the IC50 in series [1] was greater than 10000 nmol/L; in [2], 7.17 nmol/L; in series [3] it was greater than 10000 nmol/L. For the same molecule, the figures for the “T/C ratio (%)” value in [4] (Day 15) and in series [5] (Day 13) were 54% and 46%, respectively. The Number of deaths in series [4] (qd Day 1-14, po) was found to be 0; in [5], 0. For the same molecule, the “Tumor volume (mm^3) Day 15 Mean ± SE” value in series [4] (qd Day 1-14, po) is listed as 429.2 ± 60.2 mm^3. Moreover, the “Tumor volume (mm^3) Day 13 Mean ± SE” value in [5] (qd, po) came to 1067.9 ± 139.4 mm^3.
For the molecule `Cc1nc(NC(=O)N2CCC[C@H]2C(N)=O)sc1-c1ccnc(C(C)(C)C(F)(F)F)c1` [Alpelisib], the IC50 was 179 nM in [6]; 6.41 µM in [7]; 918 nM in series [8]; 6.34 µM in series [9]; 1090 nM in series [10]; greater than 10 µM in series [11]. Moreover, the IC50 in [12] was greater than 10000 nM; in series [13] it was 2700 nM; in series [14] it was no less than 179 nM. Moreover, the “apoptosis induction (cleaved PARP signal)” value in [15] (MCF7 NF1 knockdown cells versus control cells) is on record as “attenuated”; in series [15] (MCF7 control cells (non-targeting siRNA), single agent) it was “induced apoptosis”.
On to `CC(=O)Nc1cccc(-n2c(=O)n(C3CC3)c(=O)c3c(Nc4ccc(I)cc4F)n(C)c(=O)c(C)c32)c1` [Trametinib], for which the IC50 in series [6] was greater than 2000 nM; in [7] it was greater than 2 µM; in series [8], greater than 2000 nM; in [9], 0.016 µM; in [10], 40 nM; in [11], greater than 10 µM. The IC50 is 176 nM in series [12]; 40 nM in series [13]; no less than 16 nM in [14]; 0.693 nmol/L in [16]; 9 nmol/L in [1]; 0.739 nmol/L in [2]. Also, the IC50 in series [3] is greater than 10000 nmol/L. Also, the Number of deaths in [17] and in series [18] was 0 each time. For the same molecule, the entries for the “T/C ratio (%)” value in series [17] (Day 15) and in series [18] (Day 22) were 76% and 51%, respectively. In series [17] (qd Day 1-14, po), the “Tumor volume (mm^3) Day 15 Mean ± SE” value came to 1129.3 ± 73.5 mm^3. Besides, the “Tumor volume (mm^3) Day 22 Mean ± SE” value in series [18] (qd Day 1-21, po) is 482.5 ± 25.6 mm^3.
In the case of `C[C@]12CC[C@@H]3c4ccc(O)cc4C[C@@H](CCCCCCCCC[S+]([O-])CCCC(F)(F)C(F)(F)F)[C@H]3[C@@H]1CC[C@@H]2O` (some centres unmarked) [fulvestrant], the apoptosis induction result in [19] (single agent, presence or absence of estrogen, NF1 wildtype and NF1 knockdown cells) is “little apoptosis inducing activity”. In addition, in series [19] (treatment with fulvestrant alone), the ER reduction result was “ER reduction was observed clearly”.

(Values after patent US20240408100A1, “TREATMENT METHODS FOR SUBJECTS HAVING CANCER WITH A DYSREGULATED MAPK AND/OR PI3K PATHWAY” (TAIHO PHARMACEUTICAL CO., LTD., priority 2021, published 2024).)
